Test results: US20040034219A1, “Benzothiophene derivative compounds process of preparation and use thereof” (priority 2000, published 2004)
Where a name gives a salt, the structure may show the parent alone.

Tests used:
serotonin transporter = target: T1, serotonin transporter (Rattus norvegicus, UniProt P31652); experiment: Tests of fixing to the serotonin transporter (5-HT), 3H-paroxetine displacement; type: binding; conditions: membranes of rat cerebral cortex, 3H-paroxetine 0.1 nM, 60 minutes at 22° C.
T1 construct: a fraction of semi-purified membranes of the cerebral cortex of rat; from tissue; host or cells: rat cerebral cortex membranes
Procedure: Tests of Fixing to the Serotonin Transporter (5-HT)
The biological material used was a fraction of semi-purified membranes of the cerebral cortex of rat, obtained using the method described above.
The membrane fraction was resuspended in Tris-HCl 50 mM, pH 7.4 at 40° C., which contained NaCl 120 mM and KCl 5 mM, and was incubated with ^3H-paroxetine 0.1 nM and different concentrations of fluoxetine as displacing agent. At the end of the period of incubation of 60 minutes at 22° C. the membrane fraction was separated by rapid filtration and the radioactivity of the combined fraction quantified by means of liquid scintillation.
(§1) The results are expressed as the Ki of the serotonin transporter and the Ki of the 5-HT1A receptor.

5-HT1A receptors = target: T2, 5-HT1A receptors (Rattus norvegicus, UniProt P19327); experiment: Tests for fixing to serotonin 5HT1A receptors, 3H-DPAT displacement; type: binding; conditions: membranes of rat cerebral cortex, 3H-DPAT 1 nM, 15 minutes at 37° C.
T2 construct: fraction of membranes isolated from the cerebral cortex of rats; from tissue; host or cells: rat cerebral (frontal) cortex membranes
T2 sequence (P19327 1-422): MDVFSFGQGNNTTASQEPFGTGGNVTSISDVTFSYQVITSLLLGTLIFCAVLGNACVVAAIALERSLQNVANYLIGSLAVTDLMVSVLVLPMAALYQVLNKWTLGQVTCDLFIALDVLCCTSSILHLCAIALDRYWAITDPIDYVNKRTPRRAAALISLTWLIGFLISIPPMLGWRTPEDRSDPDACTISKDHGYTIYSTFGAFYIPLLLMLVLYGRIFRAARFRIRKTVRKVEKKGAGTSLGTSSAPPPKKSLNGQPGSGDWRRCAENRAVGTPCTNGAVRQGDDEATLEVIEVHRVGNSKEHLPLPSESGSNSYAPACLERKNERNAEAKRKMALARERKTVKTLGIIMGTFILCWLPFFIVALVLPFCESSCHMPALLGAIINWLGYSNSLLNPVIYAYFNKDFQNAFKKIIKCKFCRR
Procedure: Tests for Fixing to Serotonin 5HT1A Receptors
The technique described by Hoyer and collaborators (Eur. J. Pharmacol. 118:13-23.1985) was used to determine the affinity of the products for the 5-HT1A receptors. The studies were carried out with the fraction of membranes isolated from the cerebral cortex of rats. The agonist ^3H-Dipropylaminotetraline (DPAT) was used as specific ligand, while non-radioactive DPAT was used as displacing ligand.
In order to isolate the fraction of membranes, the frontal cortex of the rat was dissected and homogenised in Tris-HCl 50 mM, pH 7.7 at 4° C. The resulting homogenate was centrifuged at 25000 rpm for 15 minutes at 4° C. and the sediment resuspended in Tris-HCl containing CaCl2 4 mM. For the fixing test the suspension of membranes was incubated with ^3H-DPAT (1 nM) and different concentrations of the cold displacing agent. Once the incubation period of 15 minutes at 37° C. had elapsed, the membrane fraction was separated by means of rapid filtration and the radioactivity of the combined fraction quantified by means of liquid scintillation.
as §1

T1 sequence (P31652 whole entry): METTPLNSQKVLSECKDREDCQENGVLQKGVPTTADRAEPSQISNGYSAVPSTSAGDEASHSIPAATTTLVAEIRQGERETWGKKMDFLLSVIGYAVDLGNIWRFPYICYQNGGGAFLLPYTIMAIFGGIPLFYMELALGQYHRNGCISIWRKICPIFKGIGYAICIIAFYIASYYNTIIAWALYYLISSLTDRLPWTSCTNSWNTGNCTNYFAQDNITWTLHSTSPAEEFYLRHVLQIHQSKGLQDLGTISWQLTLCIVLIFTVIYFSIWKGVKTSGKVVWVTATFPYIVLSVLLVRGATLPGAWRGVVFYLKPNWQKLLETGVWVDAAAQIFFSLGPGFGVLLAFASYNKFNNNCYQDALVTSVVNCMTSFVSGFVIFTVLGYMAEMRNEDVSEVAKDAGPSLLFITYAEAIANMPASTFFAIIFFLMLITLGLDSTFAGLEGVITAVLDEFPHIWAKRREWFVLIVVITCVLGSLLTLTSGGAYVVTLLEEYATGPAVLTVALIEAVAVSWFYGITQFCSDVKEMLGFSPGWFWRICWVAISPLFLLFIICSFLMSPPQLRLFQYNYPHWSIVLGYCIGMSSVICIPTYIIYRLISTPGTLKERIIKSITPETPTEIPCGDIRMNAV

Ki (serotonin transporter) [nM] | Ki (5-HT1A receptors) [nM] | melting point [°C] | Compound
6.9 | 14 |  | O=[N+]([O-])c1ccc2scc(C(O)CCN3CCN(c4cccc5c4OCCO5)CC3)c2c1 (stereo not drawn) [Example 39, 1-(5-nitrobenzo[b]thiophen-3-yl)-3-[14-(2,3-dihydro-1,4-benzodioxyn-5-yl)piperazin-1-yl]propan-1-ol]
12.7 | 26.1 | 127 to 129 | OC(CCN1CCN(c2cccc3ncccc23)CC1)c1csc2ccccc12 (stereo not drawn) [Example 37, 1-(benzo[b]thiophen-3-yl)-3-[4-(quinol-5-yl)piperazin-1-yl]propan-1-ol]
 |  | 83 to 85 | O=C(CCN1CCN(c2cccc3[nH]ccc23)CC1)c1csc2ccccc12 [Example 10, 1-(benzo[b]thiophen-3-yl)-3-[4-(indol-4-yl)piperazin-1-yl]propan-1-one]
7.3 | 5.9 | 170 to 173 | OC(CCN1CCN(c2cccc3[nH]ccc23)CC1)c1csc2ccc(F)cc12 (stereo not drawn) [Example 29, 1-(5-fluorobenzo[b]thiophen-3-yl)-3-[4-(indol-4-yl)piperazina-1-yl]propan-1-ol]
 |  | 92 to 96 | O=C(CCN1CCN(c2ccc3ccccc3n2)CC1)c1csc2ccccc12 [Example 14, 1-(benzo[b]thiophen-3-yl)-3-[4-(quinol-2-yl)piperazin-1-yl]propan-1-one]
8.5 | 2.5 |  | Cc1ccc2cccc(N3CCN(CCC(O)c4csc5ccc(F)cc45)CC3)c2n1 (stereo not drawn) [Example 30, 1-(5-fluorobenzo[b]thiophen-3-yl)-3-[4-(quinaldin-8-yl)piperazin-1-yl]propan-1-ol]
 |  | 134 to 136 | O=C(CCN1CCN(c2ccnc3ccccc23)CC1)c1csc2ccccc12 [Example 15, 1-(benzo[b]thiophen-3-yl) -3-[4-(quinol-4-yl)piperazin-1-yl]propan-1-one]
6.2 | 18.2 |  | Oc1ccc2scc(C(O)CCN3CCN(c4cccc5c4OCCO5)CC3)c2c1 (stereo not drawn) [Example 50, 1-(5-hydroxybenzo[b]thiophen-3-yl)-3-[4-(2,3-dihydro-1,4-benzodioxyn-5-yl)piperazin-1-yl]propan-1-ol]
6.4 | 377 |  | OC(CCN1CCN(c2ccc3ccccc3n2)CC1)c1csc2ccccc12 (stereo not drawn) [Example 44, 1-(benzo [b]thiophen-3-yl) -3-[4-(quinol-2-yl)piperazin-1-yl]propan-1-ol]
15.9 | 3.2 |  | O=C(CCN1CCN(c2cccc3c2OCCO3)CC1)c1csc2ccc([N+](=O)[O-])cc12 [Example 21, 1-(5-nitrobenzo[b]thiophen-3-yl)-3-[4-(2,3-dihydro-1,4-benzodioxyn-5-yl)piperazin-1-yl]propan-1-one]
2.2 | 546 |  | OC(CCN1CCN(c2ccc3ncccc3c2)CC1)c1csc2ccccc12 (stereo not drawn) [Example 47, 1-(benzo[b]thiophen-3-yl)-3-[4-(quinol-6-yl)piperazin-1-yl]propan-1-ol]
 |  | 150 to 152 | Cl.Cl.O=C(CCN1CCN(c2cccc3cccnc23)CC1)c1csc2ccccc12
8.6 | 1.5 | 169 to 170 | Cl.OC(CCN1CCN(c2cccc3cccnc23)CC1)c1csc2ccccc12 (stereo not drawn) [Example 33, 1-(benzo[b]thiophen-3-yl)-3-[4-(quinol-8-yl)piperazin-1-yl]propan-1-ol hydrochloride]
9.9 | 10.2 |  | Cc1ccc2cccc(N3CCN(CCC(O)c4csc5ccccc45)CC3)c2n1 (stereo not drawn) [Example 36, 1-(benzo[b]thiophen-3-yl)-3-[4-(quinaldin-8-yl)piperazin-1-yl]propan-1-ol hydrochloride]
 |  | 112 to 114 | O=C(CCN1CCN(c2cnc3ccccc3c2)CC1)c1csc2ccccc12 [Example 16, 1-(benzo [b]thiophen-3-yl) -3-[4-(quinol-3-yl)piperazin-1-yl]propan-1-one]

Compound | Ki (serotonin transporter) [nM] | Ki (5-HT1A receptors) [nM] | melting point [°C]
OC(CCN1CCN(c2cccc3c2OCCO3)CC1)c1csc2ccc(F)cc12 (stereo not drawn) [Example 28, 1-(5-fluorobenzo[b]thiophen-3-yl)-3-[4-(2,3-dihydro-1,4-benzodioxyn-5-yl)piperazin-1-yl]propan-1-ol] | 14.9 | 6 | 147 to 150
OC(CCN1CCN(c2ccnc3ccccc23)CC1)c1csc2ccccc12 (stereo not drawn) [Example 45, 1-(benzo[b]thiophen-3-yl)-3-[4-(quinol-4-yl)piperazin-1-yl]propan-1-ol hydrochloride] | 19.4 | 301 | 
OC(CCN1CCN(c2cccc3cccnc23)CC1)c1csc2ccc(F)cc12 (stereo not drawn) [Example 27, 1-(5-fluorobenzo[b]thiophen-3-yl)-3-[4-(quinol-8-yl)piperazin-1-yl]propan-1-ol] | 7.5 | 2.7 | 89 to 91
Cl.OC(CCN1CCN(c2cccc3[nH]ccc23)CC1)c1csc2ccccc12 (stereo not drawn) [Example 35, 1-(benzo[b]thiophen-3-yl)-3-[4-(indol-4-yl)piperazin-1-yl]propan-1-ol hydrochloride] | 4.1 | 5.5 | > 300
